Laboratory results published in PMC10600239, “Selective MCL-1 inhibitor ABBV-467 is efficacious in tumor models but is associated with cardiac troponin increases in patients” (Communications Medicine, 2023).

Key:
Assay in all cases: Off-target profiling (Supplementary Data 1)
[1] = target: off-target receptors, ion channels, and transporters (Homo sapiens, UniProt P23219); settings: CEREP
[2] = target: off-target receptors, ion channels, and transporters (Homo sapiens, UniProt P41240); settings: TR-FRET Kinome; SignalChem A-1196581.2 .002(Subs Conc)
[3] = target: off-target receptors, ion channels, and transporters (Homo sapiens, UniProt P31749); settings: TR-FRET Kinome; SignalChem A-1169612.6 .2(Subs Conc)
[4] = target: off-target receptors, ion channels, and transporters (Homo sapiens, UniProt Q9UKP6); settings: CEREP
[5] = target: off-target receptors, ion channels, and transporters (Homo sapiens, UniProt Q14432); settings: Bioprofiling 6pt Antag; cAMP
[6] = target: off-target receptors, ion channels, and transporters (Homo sapiens, UniProt Q13627); settings: TR-FRET Kinome; Invitrogen A-1180691.2 .0125(Subs Conc)
[7] = target: off-target receptors, ion channels, and transporters (Homo sapiens, UniProt P00519); settings: TR-FRET Kinome; Invitrogen A-1196581.2 .007(Subs Conc)
[8] = target: off-target receptors, ion channels, and transporters (Homo sapiens, UniProt P42681); settings: TR-FRET Kinome; SignalChem A-1224127.6 .005(Subs Conc)
[9] = target: off-target receptors, ion channels, and transporters (Homo sapiens, UniProt Q9UQM7); settings: TR-FRET Kinome; Invitrogen A-1169612.6 .003(Subs Conc)
[10] = target: off-target receptors, ion channels, and transporters (Homo sapiens, UniProt O43353); settings: TR-FRET Kinome; Millipore A-1499319.7 .1(Subs Conc)
[11] = target: off-target receptors, ion channels, and transporters (Homo sapiens, UniProt P45983); settings: TR-FRET Kinome; Invitrogen A-1196442.2 .1(Subs Conc)
[12] = target: off-target receptors, ion channels, and transporters (Homo sapiens, UniProt P08588)
[13] = target: off-target receptors, ion channels, and transporters (Homo sapiens, UniProt Q07343); settings: read-out: PDE4B2 Human - IC50; Bioprofiling 6pt Antag; cAMP
[14] = target: off-target receptors, ion channels, and transporters (Homo sapiens, UniProt Q04771); settings: TR-FRET Kinome; Invitrogen A-1180691.2 .05(Subs Conc)
[15] = target: off-target receptors, ion channels, and transporters (Homo sapiens, UniProt Q96GD4); settings: TR-FRET Kinome; Invitrogen A-1202211.2 .05(Subs Conc)
[16] = target: off-target receptors, ion channels, and transporters (Homo sapiens, UniProt P41595)
[17] = target: off-target receptors, ion channels, and transporters (Homo sapiens, UniProt P34947); settings: TR-FRET Kinome; Invitrogen A-1180691.2 .1(Subs Conc)
[18] = target: off-target receptors, ion channels, and transporters (Homo sapiens, UniProt O15530); settings: TR-FRET Kinome; Invitrogen A-1167389.7 .015(Subs Conc)
[19] = target: off-target receptors, ion channels, and transporters (Homo sapiens, UniProt P51955); settings: TR-FRET Kinome; Invitrogen A-1196581.2 .025(Subs Conc)
[20] = target: off-target receptors, ion channels, and transporters (Homo sapiens, UniProt Q07912); settings: TR-FRET Kinome; Invitrogen A-1169612.6 .025(Subs Conc)
[21] = target: off-target receptors, ion channels, and transporters (Homo sapiens, UniProt P30411)
[22] = target: off-target receptors, ion channels, and transporters (Homo sapiens, UniProt Q02750); settings: TR-FRET Kinome; Invitrogen A-1169612.6 .025(Subs Conc)
[23] = target: off-target receptors, ion channels, and transporters (Homo sapiens, UniProt P30542)
[24] = target: off-target receptors, ion channels, and transporters (Homo sapiens, UniProt Q16539); settings: TR-FRET Kinome; Invitrogen IVGN Tracer 199 .05(Subs Conc)
[25] = target: off-target receptors, ion channels, and transporters (Homo sapiens, UniProt P21554)
Chain of off-target receptors, ion channels, and transporters (Homo sapiens, UniProt P21554) (P21554 whole entry): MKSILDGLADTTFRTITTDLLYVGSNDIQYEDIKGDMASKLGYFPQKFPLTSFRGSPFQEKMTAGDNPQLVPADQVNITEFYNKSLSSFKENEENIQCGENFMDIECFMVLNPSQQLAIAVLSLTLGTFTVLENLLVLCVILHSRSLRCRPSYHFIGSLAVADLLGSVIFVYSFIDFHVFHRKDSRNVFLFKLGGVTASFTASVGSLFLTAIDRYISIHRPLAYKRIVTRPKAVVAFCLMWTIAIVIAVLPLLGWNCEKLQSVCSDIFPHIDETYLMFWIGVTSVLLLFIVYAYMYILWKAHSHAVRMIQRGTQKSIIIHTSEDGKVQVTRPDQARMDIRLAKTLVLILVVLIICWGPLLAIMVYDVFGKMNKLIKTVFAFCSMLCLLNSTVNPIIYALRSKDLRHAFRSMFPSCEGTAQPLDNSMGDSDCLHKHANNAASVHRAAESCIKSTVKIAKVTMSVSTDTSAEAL

Chain of off-target receptors, ion channels, and transporters (Homo sapiens, UniProt P41595) (P41595 whole entry): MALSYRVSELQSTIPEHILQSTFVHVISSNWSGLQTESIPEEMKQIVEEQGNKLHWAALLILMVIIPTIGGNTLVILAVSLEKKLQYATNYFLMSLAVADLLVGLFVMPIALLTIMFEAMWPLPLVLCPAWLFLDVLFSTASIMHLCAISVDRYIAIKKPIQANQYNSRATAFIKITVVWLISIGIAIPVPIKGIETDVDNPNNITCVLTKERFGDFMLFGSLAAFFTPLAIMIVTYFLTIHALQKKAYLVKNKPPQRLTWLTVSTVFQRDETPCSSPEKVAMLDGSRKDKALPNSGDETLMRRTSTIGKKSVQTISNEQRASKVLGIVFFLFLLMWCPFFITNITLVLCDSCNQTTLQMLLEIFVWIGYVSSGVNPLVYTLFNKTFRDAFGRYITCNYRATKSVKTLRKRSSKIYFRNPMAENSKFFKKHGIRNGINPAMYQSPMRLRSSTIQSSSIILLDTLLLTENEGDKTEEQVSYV
Chain of off-target receptors, ion channels, and transporters (Homo sapiens, UniProt P08588) (P08588 whole entry): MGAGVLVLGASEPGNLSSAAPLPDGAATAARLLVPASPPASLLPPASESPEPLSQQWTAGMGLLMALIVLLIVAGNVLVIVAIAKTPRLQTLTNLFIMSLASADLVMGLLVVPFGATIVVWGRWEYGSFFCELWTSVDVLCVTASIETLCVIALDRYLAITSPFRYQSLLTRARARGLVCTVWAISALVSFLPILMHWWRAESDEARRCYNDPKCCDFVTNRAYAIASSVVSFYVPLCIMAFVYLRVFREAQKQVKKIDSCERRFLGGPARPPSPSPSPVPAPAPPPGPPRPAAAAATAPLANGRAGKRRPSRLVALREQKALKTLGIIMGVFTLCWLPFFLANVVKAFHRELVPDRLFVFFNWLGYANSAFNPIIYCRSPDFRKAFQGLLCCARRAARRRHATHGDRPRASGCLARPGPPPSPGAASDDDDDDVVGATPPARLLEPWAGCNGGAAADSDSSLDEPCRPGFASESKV
Chain of off-target receptors, ion channels, and transporters (Homo sapiens, UniProt Q9UKP6) (Q9UKP6 whole entry): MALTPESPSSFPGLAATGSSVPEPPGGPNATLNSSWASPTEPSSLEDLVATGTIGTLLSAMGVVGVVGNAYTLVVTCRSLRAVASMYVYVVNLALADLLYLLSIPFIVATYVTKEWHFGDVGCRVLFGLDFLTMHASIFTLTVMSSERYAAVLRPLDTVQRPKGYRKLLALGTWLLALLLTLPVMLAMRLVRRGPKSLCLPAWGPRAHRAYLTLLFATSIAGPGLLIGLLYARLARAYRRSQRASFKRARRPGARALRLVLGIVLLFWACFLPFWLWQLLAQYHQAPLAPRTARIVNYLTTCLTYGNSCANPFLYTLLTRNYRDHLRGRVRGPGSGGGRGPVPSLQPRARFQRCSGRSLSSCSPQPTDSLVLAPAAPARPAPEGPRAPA
Chain of off-target receptors, ion channels, and transporters (Homo sapiens, UniProt P30411) (P30411 whole entry): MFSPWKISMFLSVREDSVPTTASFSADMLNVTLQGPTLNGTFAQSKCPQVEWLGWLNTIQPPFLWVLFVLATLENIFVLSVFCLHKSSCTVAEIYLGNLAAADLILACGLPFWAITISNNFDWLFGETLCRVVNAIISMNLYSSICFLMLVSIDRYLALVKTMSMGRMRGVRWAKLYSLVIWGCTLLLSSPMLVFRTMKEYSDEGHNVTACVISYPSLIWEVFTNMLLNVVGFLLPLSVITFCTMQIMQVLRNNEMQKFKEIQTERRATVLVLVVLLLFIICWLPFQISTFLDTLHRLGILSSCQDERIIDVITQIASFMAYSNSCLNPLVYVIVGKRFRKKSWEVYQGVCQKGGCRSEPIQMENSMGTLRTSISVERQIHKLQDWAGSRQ
Chain of off-target receptors, ion channels, and transporters (Homo sapiens, UniProt P30542) (P30542 whole entry): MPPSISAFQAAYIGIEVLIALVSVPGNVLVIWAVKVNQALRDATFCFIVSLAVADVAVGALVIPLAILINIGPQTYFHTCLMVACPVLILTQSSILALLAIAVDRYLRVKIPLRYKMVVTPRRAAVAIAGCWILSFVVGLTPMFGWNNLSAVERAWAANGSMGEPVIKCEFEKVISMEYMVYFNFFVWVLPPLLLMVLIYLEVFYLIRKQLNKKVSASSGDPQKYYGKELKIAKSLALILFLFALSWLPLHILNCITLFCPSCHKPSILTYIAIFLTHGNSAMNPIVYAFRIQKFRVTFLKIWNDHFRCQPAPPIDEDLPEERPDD
Chain of off-target receptors, ion channels, and transporters (Homo sapiens, UniProt P45983) (P45983 whole entry): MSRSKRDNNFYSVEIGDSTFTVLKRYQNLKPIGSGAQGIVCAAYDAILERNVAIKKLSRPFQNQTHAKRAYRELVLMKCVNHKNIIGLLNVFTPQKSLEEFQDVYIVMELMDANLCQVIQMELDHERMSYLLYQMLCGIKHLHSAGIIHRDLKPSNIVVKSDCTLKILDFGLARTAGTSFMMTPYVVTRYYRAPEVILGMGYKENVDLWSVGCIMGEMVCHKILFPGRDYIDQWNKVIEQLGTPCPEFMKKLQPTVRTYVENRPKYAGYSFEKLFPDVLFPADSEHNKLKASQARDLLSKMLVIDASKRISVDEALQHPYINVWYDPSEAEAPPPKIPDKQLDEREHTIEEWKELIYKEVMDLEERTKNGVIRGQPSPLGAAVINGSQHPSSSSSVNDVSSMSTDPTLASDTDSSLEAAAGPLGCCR
Chain of off-target receptors, ion channels, and transporters (Homo sapiens, UniProt P34947) (P34947 whole entry): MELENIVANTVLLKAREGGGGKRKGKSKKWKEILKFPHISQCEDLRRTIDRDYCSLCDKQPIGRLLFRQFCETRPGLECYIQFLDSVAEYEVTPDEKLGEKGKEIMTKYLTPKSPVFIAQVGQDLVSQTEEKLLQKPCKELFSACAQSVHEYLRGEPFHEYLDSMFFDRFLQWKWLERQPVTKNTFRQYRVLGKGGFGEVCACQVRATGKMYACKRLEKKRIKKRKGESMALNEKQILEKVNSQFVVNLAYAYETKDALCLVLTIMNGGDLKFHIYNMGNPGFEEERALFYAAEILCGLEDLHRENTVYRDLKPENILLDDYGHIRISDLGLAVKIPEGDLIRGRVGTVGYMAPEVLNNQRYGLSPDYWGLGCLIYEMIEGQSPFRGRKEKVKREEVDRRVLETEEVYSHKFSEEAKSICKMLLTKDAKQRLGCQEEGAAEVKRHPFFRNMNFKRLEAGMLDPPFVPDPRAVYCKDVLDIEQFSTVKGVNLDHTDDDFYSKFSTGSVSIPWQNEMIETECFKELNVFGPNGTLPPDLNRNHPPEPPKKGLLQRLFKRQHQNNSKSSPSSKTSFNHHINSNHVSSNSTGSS
Chain of off-target receptors, ion channels, and transporters (Homo sapiens, UniProt P00519) (P00519 whole entry): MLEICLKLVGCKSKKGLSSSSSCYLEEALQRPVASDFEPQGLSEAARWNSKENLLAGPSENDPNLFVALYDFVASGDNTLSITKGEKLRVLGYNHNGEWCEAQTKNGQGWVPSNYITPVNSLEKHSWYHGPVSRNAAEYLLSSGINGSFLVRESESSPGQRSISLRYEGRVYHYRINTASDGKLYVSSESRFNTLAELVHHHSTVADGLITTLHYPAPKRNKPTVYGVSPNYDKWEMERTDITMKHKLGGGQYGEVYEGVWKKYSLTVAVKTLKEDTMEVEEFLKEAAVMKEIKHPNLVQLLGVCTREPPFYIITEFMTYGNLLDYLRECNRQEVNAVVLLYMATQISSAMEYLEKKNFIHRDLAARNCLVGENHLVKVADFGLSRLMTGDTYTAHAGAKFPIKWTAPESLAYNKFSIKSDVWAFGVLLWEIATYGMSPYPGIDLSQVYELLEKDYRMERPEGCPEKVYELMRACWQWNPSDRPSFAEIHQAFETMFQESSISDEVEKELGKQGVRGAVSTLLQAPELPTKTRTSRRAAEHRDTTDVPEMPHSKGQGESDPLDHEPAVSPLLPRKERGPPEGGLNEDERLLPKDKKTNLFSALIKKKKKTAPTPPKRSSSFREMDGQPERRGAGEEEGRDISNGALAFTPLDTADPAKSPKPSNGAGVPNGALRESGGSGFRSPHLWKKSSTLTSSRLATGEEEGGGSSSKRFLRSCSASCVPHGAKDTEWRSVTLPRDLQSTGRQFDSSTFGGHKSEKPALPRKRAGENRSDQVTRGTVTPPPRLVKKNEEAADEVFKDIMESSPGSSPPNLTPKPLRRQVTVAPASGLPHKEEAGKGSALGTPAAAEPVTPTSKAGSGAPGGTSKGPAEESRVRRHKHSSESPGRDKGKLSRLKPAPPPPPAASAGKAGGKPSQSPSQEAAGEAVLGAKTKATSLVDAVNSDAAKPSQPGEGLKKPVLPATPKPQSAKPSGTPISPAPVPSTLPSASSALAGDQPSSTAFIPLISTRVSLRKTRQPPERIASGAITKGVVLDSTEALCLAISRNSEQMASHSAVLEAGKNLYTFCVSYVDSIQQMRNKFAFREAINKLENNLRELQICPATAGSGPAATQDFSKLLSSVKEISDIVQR

**Q.** With `Cc1c(Cl)c2c(Cl)c(C)c1-c1c(-c3ccc(F)cc3)sc3ncnc(c13)O[C@@H](C(=O)O)Cc1cc(ccc1OCc1ccnc(-c3ccc(OC[C@H]4COCCO4)cc3)n1)OC[C@@H](CN1CCN(C)CC1)O2` [ABBV-467] as the molecule, how does the COX1 Human (Enzymatic Assay) - IC50 [1] read?
**A.** 8.6 µM

**Q.** What about the CSK - IC50 [2] of the same molecule?
**A.** > 10 µM

**Q.** And the Akt1 - IC50 [3]?
**A.** > 10 µM

**Q.** And the EC50 ([4]; read-out: Urotensin-II (UT1) Human (Functional - Agonist Effect) - EC50)?
**A.** > 30 µM

**Q.** And the IC50 ([4]; read-out: Urotensin-II (UT1) Human (Functional - Antagonist Effect) - IC50)?
**A.** > 30 µM

**Q.** And the PDE3A Human - IC50 [5]?
**A.** > 10 µM

**Q.** What about the Dyrk1A - IC50 [6] of the same molecule?
**A.** > 10 µM

**Q.** What about the Abl - IC50 [7] of the same molecule?
**A.** > 10 µM

**Q.** What about the TXK - IC50 [8] of the same molecule?
**A.** > 10 µM

**Q.** And the CAMK2A - IC50 [9]?
**A.** > 10 µM

**Q.** And the RIPK2 - IC50 [10]?
**A.** > 10 µM

**Q.** What about the JNK1 - IC50 [11] of the same molecule?
**A.** > 10 µM

**Q.** And the Beta1 CHO Human - EC50 ([12]; Bioprofiling 6pt Ag)?
**A.** > 10 µM

**Q.** And the Beta1 CHO Human - IC50 ([12]; Bioprofiling 6pt Antag, Norepinephrine)?
**A.** > 10 µM

**Q.** What about the IC50 [13] of the same molecule?
**A.** > 10 µM

**Q.** And the ACVR1 - IC50 [14]?
**A.** > 10 µM

**Q.** What about the Aurora1 - IC50 [15] of the same molecule?
**A.** > 10 µM

**Q.** And the 5-HT2B CHO Human - EC50 ([16]; Bioprofiling 6pt Ag)?
**A.** > 10 µM

**Q.** What about the 5-HT2B CHO Human - IC50 ([16]; Bioprofiling 6pt Antag, Serotonin (5-HT)) of the same molecule?
**A.** > 10 µM

**Q.** What about the 5-HT2B Human (Functional - Agonist Effect) - EC50 ([16]; CEREP) of the same molecule?
**A.** > 100 µM

**Q.** What about the “5-HT2B Human (Functional - Antagonist Effect) - IC50” value ([16]; CEREP) of the same molecule?
**A.** >100.00 µM

**Q.** And the “5-HT2B Human (Functional - Antagonist Effect) - Kb” value ([16]; CEREP)?
**A.** >15.30 µM

**Q.** What about the GRK5 - IC50 [17] of the same molecule?
**A.** > 10 µM

**Q.** And the PDK1 - IC50 [18]?
**A.** > 10 µM

**Q.** What about the Nek2 - IC50 [19] of the same molecule?
**A.** > 10 µM

**Q.** And the TNK2 - IC50 [20]?
**A.** > 10 µM

**Q.** And the B2 CHO Human - EC50 ([21]; Bioprofiling 6pt Ag)?
**A.** > 10 µM

**Q.** What about the “B2 CHO Human - IC50” value ([21]; Bioprofiling 6pt Antag, Bradykinin) of the same molecule?
**A.** >10.00 µM

**Q.** And the MEK1 - IC50 [22]?
**A.** > 10 µM

**Q.** What about the A1 CHO Human - EC50 ([23]; Bioprofiling 6pt Ag) of the same molecule?
**A.** > 10 µM

**Q.** What about the A1 CHO Human - IC50 ([23]; Bioprofiling 6pt Antag, N6-Cyclopentyladenosine (CPA)) of the same molecule?
**A.** > 10 µM

**Q.** And the p38 alpha - IC50 [24]?
**A.** > 10 µM

**Q.** And the CB1 CHO Human - EC50 ([25]; Bioprofiling 6pt Ag)?
**A.** > 10 µM

**Q.** And the CB1 CHO Human - IC50 ([25]; Bioprofiling 6pt Antag, WIN 55,212-2)?
**A.** > 10 µM
